The source of these data is PubChem BioAssay (NCI).

Assay in all cases: DTP human tumour cell line panel, 48 h
Test [1] has as its system HT29 colon.
Test [2] concerns K-562 leukemia.
Test [3] has as its system NCI-H522 lung.
Test [4] deals with SK-MEL-28 melanoma.
The test system of test [5] is ACHN renal.
Test [6] deals with OVCAR-5 ovarian.
Test [7] relates to SN12C renal.
The subject of test [8] is EKVX NSCLC.
Test [9] relates to HL-60(TB) leukemia.
The test system of test [10] is SR leukemia.

Where “and” joins values, the source holds several entries; their conditions need not be identical. Identical values can stand only once.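 Step 1: Grow cells in 96-well plates. Step 2: Expose to compound for 48 hours at 5 concentrations. Step 3: Interpolate endpoints linearly; if unreached, use highest concentration. The concentration for 50% growth inhibition is given as GI50. Definition used: TGI = concentration required for complete inhibition of growth.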

For the compound `CN=S(=O)(C[C@]1(O)CC2OC1C1OC(C)(C)OC21)c1ccccc1` (stereo partly specified), the total growth inhibition concentration (TGI) in [1], in [2], in test [3], in test [4], in [5] and in test [6] was more than 100 µM each time. The concentration for total growth inhibition (TGI) in [7], in [8] and in test [9] was more than 100 µM each time.

Turning to `CCC[CH2][Sn]([CH2]CCC)([S]C1=NCCS1)[S]C1=NCCS1`, the GI50 in test [1] is 1.07 µM; in [2], 0.0655 µM; in test [3], 0.0133 µM; in [4] it was 0.146 µM; in test [5] it was 0.368 µM; in test [6] it was 2.29 µM. Further, the GI50 in test [7] is 0.502 µM; in test [8] it was 1.34 µM; in test [9], 0.298 µM. Besides, the TGI stood at 2.58 µM in [1]; 1.05 µM in test [2]; 0.0562 µM in test [3]; 0.353 µM in [4]; 1.31 µM in [5]; 3.78 µM in test [6]. Also, the TGI in test [7] was determined as 1.82 µM; in test [8] it was 2.71 µM; in test [9], 0.881 µM.

Consider `C=CCN(N=O)C(=O)N(CCC)CCCCC(NC(C)=O)C(=O)NCc1ccccc1` (stereo unspecified), for which the total growth inhibition concentration (TGI) was 83.6 µM in test [1]; more than 100 µM in [2]; more than 100 µM in [3]; more than 100 µM in test [4]; more than 100 µM in test [5]; more than 100 µM in test [6]. Moreover, the concentration for total growth inhibition (TGI) in test [7] was more than 100 µM; in [8] it was more than 100 µM; in test [9], 54.4 µM.

`O=C(CC1(O)C(=O)Nc2c(Cl)cc(Cl)cc21)c1ccc2ccccc2c1` (stereo unspecified): the TGI in test [1] was 18.5 µM; in test [2] it was 18.3 µM; in test [3] it was 10.9 µM; in [4] it was 24.3 µM; in test [5], 28.7 µM; in [6], 30.3 µM. The values for the concentration for total growth inhibition (TGI) in test [7], in test [8] and in test [9] were 22.9 µM, 23.4 µM and 14.6 µM, respectively.

Take `O=C(Cn1ccnc1[N+](=O)[O-])NCC(F)(F)C(F)(F)F`: the GI50 in test [1], in test [3], in test [4], in test [5], in test [6] and in test [7] was more than 100 µM throughout. The GI50 in test [8] was more than 100 µM. The TGI in test [1], in test [3], in [4], in test [5], in [6] and in test [7] was more than 100 µM throughout. This compound showed a TGI in test [8] of more than 100 µM.

Consider `O=C(CC(=O)C(F)(F)F)c1csc2ccccc12`, for which the concentration for total growth inhibition (TGI) was more than 100 µM in test [2]; more than 100 µM in test [3]; more than 100 µM in test [4]; more than 100 µM in [5]; more than 100 µM in test [6]; 75.4 µM in test [7]. Moreover, the results for the TGI in [10] and in test [8] were 50.1 µM and more than 100 µM, respectively.

For the compound `CC(=O)Nc1ccc(/C=C/C(=O)c2sc(C(N)=S)nc2C)cc1`, the concentration for total growth inhibition (TGI) in [1], in [2], in test [3], in test [4], in [6] and in test [7] was more than 100 µM each time. Also, the total growth inhibition concentration (TGI) in test [8] and in test [9] was more than 100 µM in each case.

Turning to `COc1cc2c(cc1OC)[C@@]1(C)C(=O)c3cc4c(cc3[C@H]1N(C)C2=O)OCO4`, the GI50 in test [1] was 88 µM; in [2] it was 47.6 µM; in [3], 10.4 µM; in test [4] it was more than 100 µM; in test [5], 52.2 µM; in test [6], more than 100 µM. The GI50 in test [7] is 82.4 µM; in test [8], 55 µM. Also, the TGI in test [1] is more than 100 µM; in test [2], more than 100 µM; in test [3], 85.6 µM; in test [4], more than 100 µM; in test [5], more than 100 µM; in test [6] it was more than 100 µM. The concentration for total growth inhibition (TGI) in [7] and in test [8] was more than 100 µM throughout.

For the compound `Nc1ccn([C@@H]2C=C(CO)[C@@H](O)[C@H]2O)c(=O)n1`, the total growth inhibition concentration (TGI) was 394 µM and > 625 µM in [1]; 335 µM in [2]; 500 µM and > 625 µM in [4]; 500 µM in [5]; 134 µM in test [8]. Besides, the 50% growth inhibitory concentration (GI50) was 0.0189 µM in test [2]; 0.0242 µM in test [3]; 0.05 µM in test [5]; 0.13 µM in test [6]; 0.05 µM in [10]; 2.77 µM in test [8].

As for `CCNc1nc(N2CC(=O)Nc3cc(OC)ccc32)c2ccccc2n1`, the concentration for 50% growth inhibition (GI50) is 0.000334 µM in test [1]; 0.000351 µM in [2]; 0.00051 µM in [3]; 1.7 µM in test [4]; 0.00139 µM in test [5]; 0.0107 µM in test [6]. Besides, the concentration for 50% growth inhibition (GI50) was 0.00137 µM in test [7] and 0.000235 µM in test [9]. In addition, the TGI in test [1] is 0.01 µM; in test [2], more than 100 µM; in test [3], 0.00783 µM; in test [4], more than 100 µM; in test [5], more than 100 µM; in test [6] it was more than 100 µM. Also, the total growth inhibition concentration (TGI) in test [7] was more than 100 µM; in [8] it was more than 100 µM; in test [9] it was 0.000581 µM.

For `COc1ccc(OC)c2cc(C3(C)SCCCS3)ccc12`, the TGI in test [1], in test [2], in [4], in test [5], in test [6] and in [7] was more than 100 µM each time. Also, the total growth inhibition concentration (TGI) in test [8] and in [9] was more than 100 µM throughout.

In the case of `Cc1ccc2[nH]c(=O)c(C(C#N)c3ccccc3)nc2c1` (stereo unspecified), the total growth inhibition concentration (TGI) in [1] is more than 100 µM; in test [2], more than 100 µM; in [3], 70.7 µM; in [4], more than 100 µM; in [5] it was more than 100 µM; in test [6] it was more than 100 µM. The figures for the TGI in test [7], in test [10] and in test [8] were more than 100 µM, more than 100 µM and 84 µM, respectively.
